The values that follow come from patent publication US6361595B1, “Process for the preparation of pigment compositions” (Ciba Specialty Chemicals Corporation, priority 1999, dated 2002).

Some results are limits rather than exact numbers.

What all share (format): cell-based, bacteria
In assay [1] the test system is mixed culture of Gram-positive cocci, Gram-negative cocci, Gram-positive rods and Gram-negative rods. As to the kind of experiment: Microbial contamination of dried Pigment Yellow 65 powder (Example 2 procedure) after mixing filter cake with bacterial culture. How it is done:
(§1) Susceptibility to microbial contamination is assessed according to the following procedure:
(§2) Microbial contamination is assessed using individual bacteria of the morphological types, Gram-positive cocci, Gram-negative cocci, Gram-positive rods and Gram-negative rods which are maintained on Nutrient Agar slopes. When required, each is cultured in Nutrient broth at 30° C. until an organism count of >10^8 colony-forming units (cfu) per milliliter (ml) is reached. The individual cultures are then mixed in equal proportions to provide a mixed culture which is then used immediately.
(§3) 10 mg of the sieved powder and one drop of sterile water are evenly spread on a Nutrient Agar plate with a glass spreader under aseptic conditions and the plate incubated at 30° C. for 48 hours, The number of bacterial colonies evident on each plate are then counted and expressed as the number of colony-forming units per gram (cfu/g).
(§4) 23.3 parts of acetic acid (100%) are added to a solution of 55 parts of acetoacet-o-anisidide dissolved in a solution of 25.5 parts of sodium hydroxide (47%) in 450 parts of water at a temperature of 0° C. The resultant slurry is reacted with 42.5 parts of o-nitro-p-anisidine previously diazotised with 45.4 parts of sodium nitrite (37%) and 56 parts of hydrochloric acid (36%) in the usual manner with simultaneous addition of sodium hydroxide solution (10%) to maintain pH 5.5-6.0. To the coupled slurry are then added 3 parts of dibutyl sebacate and 1 part of dimethylbenzyl-C12-14alkylammonium chloride (100% active) and the mixture is heated to a temperature of 100° C. and maintained at this temperature for one hour. The product is then filtered and washed with water under vacuum to remove soluble salts. The filter cake (still under vacuum suction) is mixed with a bacterial culture (10 ml of culture diluted to 100 ml with water) and vacuum suction is maintained until no further liquid emanates from the filter cake. The filter cake, without further washing, is then dried and converted to a powder by grinding. The powder is then passed through a 150 micron sieve.
The procedure described in Example 2 is repeated, but varying the type of biocide and amount of biocide used.
The procedure described in Example 2 is repeated, but varying the type of biocide and amount of biocide used and omitting the DBS.

The test system is the same in assay [2]. As to the kind of experiment: Microbial contamination of dried Pigment Yellow 74 powder (Example 1 procedure) after mixing filter cake with bacterial culture. The following applies: PY74, 3 parts dibutyl sebacate, plate 30° C. 48 hours. The method, then:
as §1, §2
as §4, with “(80%)” for “(100%)”, “p-nitro-o-anisidine” for “o-nitro-p-anisidine”, “cake(still” for “cake (still”, “water)and” for “water) and”
The procedure described in Example 1 is repeated, but varying the type of biocide and amount of biocide used. The procedure for determining the extent of microbial contamination is as follows:
as §3

The test system is the same in assay [3]. As to the kind of experiment: Microbial contamination of dried Pigment Yellow 13 powder (Example 5 procedure) after mixing filter cake with bacterial culture. The settings on record: PY13, no DBS. How it is done:
as §1, §2, §3
A solution of 8.9 parts of acetic acid (100%) and 15 parts hydrochloric acid (36%) in 100 parts water are added to a solution of 63 parts of acetoacet-m-xylidide dissolved in a solution of 25.2 parts of sodium hydroxide (50%) in 676 parts of water at a temperature of 20° C. The resultant slurry is reacted with 36.9 parts of a previously tetrazotised solution of 3,3′-dichlorobenzidine, with simultaneous addition of sodium hydroxide solution (10%) to maintain pH 4.5-5.5. […] The product is then filtered and washed with water under vacuum to remove soluble salts. The filter cake (still under vacuum suction) is mixed with a bacterial culture (10 ml of culture diluted to 100 ml with water) and vacuum suction is maintained until no further liquid emanates from the filter cake. The filter cake, without further washing, is then dried and converted to a powder by grinding. The powder is then passed through a 150 micron sieve.

Where [4] appears, read: PY65, with 3 parts dibutyl sebacate, 0.5 parts biocide.
Setting [5] is: PY65, with 3 parts dibutyl sebacate, 1.0 parts biocide.
Setting [6] is: PY65, with 3 parts dibutyl sebacate, 3.0 parts biocide.
Setting [7] is: PY65, with 3 parts dibutyl sebacate, 5.0 parts biocide.
Setting [8] is: PY65, omitting the DBS, 0.5 parts biocide.
Where [9] appears, read: PY65, omitting the DBS, 1.0 parts biocide.
The mark [10] stands for this setting: PY65, omitting the DBS, 3.0 parts biocide.
[11] abbreviates: PY65, omitting the DBS, 5.0 parts biocide.

Take `CCCCn1sc2ccccc2c1=O` [DN, n-Butylbenzisothiazolin-3-one]: the “microbial contamination, colony-forming units per gram” value (“microbial contamination … per gram” below) in assay [1] (setting [4]) was >10^4 cfu/g; in assay [1] (setting [5]), >10^4 cfu/g; in assay [1] (setting [6]), >10^4 cfu/g; in assay [1] (setting [7]), 8.0 × 10^2 cfu/g; in assay [2] (0.5 parts biocide), >10^4 cfu/g; in assay [2] (1.0 parts biocide), >10^4 cfu/g. For the same compound, the figures for the “microbial contamination … per gram” value in assay [2] (3.0 parts biocide) and in assay [2] (5.0 parts biocide) were >10^3 cfu/g and 0 cfu/g, respectively.

As for `O=c1[nH]sc2ccccc12` [LV, 1,2-Benzisothiazolin-3-one], the “microbial contamination … per gram” value in assay [1] (setting [8]), in assay [1] (setting [9]), in assay [1] (setting [10]), in assay [1] (setting [11]), in assay [1] (setting [4]) and in assay [1] (setting [5]) was >10^4 cfu/g each time. The “microbial contamination … per gram” value in assay [1] (setting [6]) is listed as >10^4 cfu/g; in assay [1] (setting [7]), >10^4 cfu/g; in assay [2] (0.5 parts biocide), >10^5 cfu/g; in assay [2] (1.0 parts biocide), >10^5 cfu/g; in assay [2] (3.0 parts biocide) it was >10^5 cfu/g; in assay [2] (5.0 parts biocide) it was >10^5 cfu/g. Besides, the “microbial contamination … per gram” value is 3.0 × 10^3 cfu/g in assay [3] (0.5 parts biocide), 4.0 × 10^2 cfu/g in assay [3] (1.0 parts biocide), 1.0 × 10^2 cfu/g in assay [3] (3.0 parts biocide) and 6.0 × 10^2 cfu/g in assay [3] (5.0 parts biocide).

Consider `Cn1sccc1=O` [MIT, Methylisothiazolin-3-one], for which the “microbial contamination … per gram” value in assay [1] (setting [8]) was >10^5 cfu/g; in assay [1] (setting [9]) it was >10^5 cfu/g; in assay [1] (setting [10]), >10^5 cfu/g; in assay [1] (setting [11]), >10^5 cfu/g; in assay [1] (setting [4]), >10^4 cfu/g; in assay [1] (setting [5]) it was >10^3 cfu/g. The “microbial contamination … per gram” value is >10^3 cfu/g in assay [1] (setting [6]); 0 cfu/g in assay [1] (setting [7]); 8.0 × 10^3 cfu/g in assay [2] (0.5 parts biocide); 1.0 × 10^4 cfu/g in assay [2] (1.0 parts biocide); 3.0 × 10^3 cfu/g in assay [2] (3.0 parts biocide); 1.0 × 10^4 cfu/g in assay [2] (5.0 parts biocide). Moreover, the “microbial contamination … per gram” value in assay [3] (0.5 parts biocide) is >10^4 cfu/g; in assay [3] (1.0 parts biocide) it was 4.0 × 10^3 cfu/g; in assay [3] (5.0 parts biocide), 9.0 × 10^2 cfu/g.

Turning to `CCCCCCCCn1sccc1=O` [OTW, n-Octylisothiazolin-3-one], the “microbial contamination … per gram” value in assay [1] (setting [8]) is on record as >10^4 cfu/g; in assay [1] (setting [9]), >10^4 cfu/g; in assay [1] (setting [10]) it was >10^3 cfu/g; in assay [1] (setting [11]), >10^3 cfu/g; in assay [1] (setting [4]), >10^4 cfu/g; in assay [1] (setting [5]), >10^4 cfu/g. The “microbial contamination … per gram” value in assay [1] (setting [6]) was >10^4 cfu/g; in assay [1] (setting [7]) it was 0 cfu/g; in assay [2] (0.5 parts biocide), >10^4 cfu/g; in assay [2] (1.0 parts biocide), 2.0 × 10^4 cfu/g; in assay [2] (3.0 parts biocide), >10^4 cfu/g; in assay [2] (5.0 parts biocide) it was 1.4 × 10^3 cfu/g. Also, the “microbial contamination … per gram” value in assay [3] (0.5 parts biocide) is recorded as >10^4 cfu/g; in assay [3] (1.0 parts biocide), 5.0 × 10^3 cfu/g; in assay [3] (3.0 parts biocide), 0 cfu/g; in assay [3] (5.0 parts biocide), 0 cfu/g.

As for “Benzyldimethyl-C16-18-alkylammonium chloride [DMHTB]”, the “microbial contamination … per gram” value in assay [2] (0.5 parts biocide) is >10^4 cfu/g; in assay [2] (1.0 parts biocide) it was 0 cfu/g; in assay [2] (3.0 parts biocide), 0 cfu/g; in assay [2] (5.0 parts biocide) it was 0 cfu/g.

With “Dimethyl-di-C12-14-alkylammonium chloride [Example 2C-75]”, the “microbial contamination … per gram” value is 8.0 × 10^4 cfu/g in assay [2] (0.5 parts biocide), 0 cfu/g in assay [2] (1.0 parts biocide), 0 cfu/g in assay [2] (3.0 parts biocide) and 0 cfu/g in assay [2] (5.0 parts biocide).

With “Methylbenzyl-di-C16-18-alkylammonium chloride [Example M2HTB]”, the “microbial contamination … per gram” value in assay [2] (0.5 parts biocide) is recorded as >10^4 cfu/g; in assay [2] (1.0 parts biocide) it was 0 cfu/g; in assay [2] (3.0 parts biocide) it was 0 cfu/g; in assay [2] (5.0 parts biocide), 0 cfu/g.

For the compound “Methylbis-(2-hydroxyethyl)-C12-14-alkylammonium chloride [EthO-12]”, the “microbial contamination … per gram” value was >10^4 cfu/g in assay [2] (0.5 parts biocide), 0 cfu/g in assay [2] (1.0 parts biocide), 0 cfu/g in assay [2] (3.0 parts biocide) and 0 cfu/g in assay [2] (5.0 parts biocide).

Take “Trimethyl-di-C12-14-alkylammonium chloride [Example C-35]”: the “microbial contamination … per gram” value in assay [2] (0.5 parts biocide) is on record as >10^4 cfu/g; in assay [2] (1.0 parts biocide), 4.5 × 10^3 cfu/g; in assay [2] (3.0 parts biocide), 0 cfu/g; in assay [2] (5.0 parts biocide), 0 cfu/g.
